Biological target: T1, native TRPV1 (Rattus norvegicus, UniProt O35433)
T1 construct: RTX-induced membrane currents on native TRPV1 in embryonic DRG neurons grown in culture; endogenous in cells; host or cells: primary rat E18 DRG neurons
Experiment: Single-channel currents in cell-attached patches from DRG neurons
Format: cell-based
Design: Open time τ4 / Closed time τ1 / Closed time τ2 / Closed time τ3 / Closed time τ4: unit not given here
Conditions: for single-channel conductance / single-channel current amplitude / Po (single-channel open probability): cell-attached; for single-channel conductance / single-channel current amplitude: RTX, capsaicin 100 nM; for Closed time τ4 / Open time τ4 / Closed time τ1 / Closed time τ2 / Closed time τ3 / Open time τ1 / Open time τ2 / Open time τ3 / Po (single-channel open probability): CAP 100 nM; for Closed time τ1 / Closed time τ2 / Closed time τ3 / Open time τ1 / Open time τ2 / Open time τ3 / Po (single-channel open probability): RTX 0.1 nM; for slope conductance, inward limb / negative potentials: between 0 and −100 mV
From the text: For single-channel recording in cell-attached patches from DRG neurons, the bath solution contained (mM): potassium gluconate 140, KCl 2.5, MgCl2 1, Hepes 5 and EGTA 1.5; pH adjusted to 7.35 with NaOH. The patch pipettes were made from glass capillaries (Drummond, Microcaps), coated with Sylgard (Dow Corning, Midland, Mich., USA). For cell-attached patches, the patch pipettes were filled with a solution that contained (mM): sodium gluconate 140, NaCl 10, MgCl2 1, Hepes 5 and EGTA 1.5; pH adjusted to 7.35 with NaOH. While recording from cell-attached patches, in order to avoid differences in the driving force because of the differences in the membrane potential, the external NaCl was replaced by an equal amount of KCl in order to nullify the membrane potential. For outside-out patches, the pipette solution contained (mM): sodium gluconate 90, NaCl 10, BAPTA 10, Hepes 10, K2ATP2 and GTP 0.25; pH adjusted to 7.35 with NaOH. The bath solution contained (mM): sodium gluconate 100, KCl 2.5, MgCl2 1, Hepes 5 and EGTA 1.5; pH adjusted to 7.35 with NaOH. All the experiments were performed at room temperature (21-23° C.). Agar-bridge electrodes were used to avoid changes in junction potential. The currents were recorded using a WPC 100 (Warner Instruments) or Axopatch 2B (Axon Instruments, Union City, Calif., USA) patch-clamp amplifier. Data were filtered at 10 kHz (Axopatch 2B), digitized (VR-10B, Instrutech Corp.), and stored on videotapes. For the analysis of amplitude and open probability (Po), the data were filtered at 2.5 kHz (−3 db frequency with an 8-pole low-pass Bessel filter, Warner Instruments) and digitized at 5 kHz. For dwell-time analysis, the data were filtered at 10 kHz and digitized at 50 kHz.
Single-channel analysis. Single-channel current amplitude and Po were estimated from all-point current amplitude histograms (Channel 2 software kindly provided by Michael Smith, Australian National University, Can berra, Australia) and fitted to Gaussian densities (Origin, OriginLab Corp., Northampton, Mass., USA). For current-voltage relationships, the amplitudes were determined by fitting a Gaussian curve to an all-point histogram. Po was determined using unedited segments of data, which were typically 1-5 min long. For multiple channel patches, the mean Po was measured as nPo, where n is the number of channels in the patch. Chord conductance was measured at +60 or −60 mV. […]
Single-channel currents were idealized using a modified Viterbi algorithm (QUB software, www.qub.buffalo.edu). Dwell-time distributions were fitted with mixtures of exponential densities using a method of maximum likelihood. Additional exponential components were incorporated only if the maximum log likelihood increased more than 2 log likelihood units. (Chung et al. 1990; Qin et al. 1996; Premkumar et al. 1997.) A dead time (Td) of 50 μs was imposed retrospectively, in that, events shorter than 50 μs were considered to be a part of the adjoining sojourns.
Single-channel conductance. To further evaluate the properties of TRPV1 activation by RTX, we recorded single-channel currents from cell-attached and excised patches from DRG neurons and oocytes heterologously expressing TRPV1. All recordings were carried out in the absence of extracellular calcium to avoid tachyphylaxis and desensitization of channel activity. (Docherty et al. 1996; Caterina et al. 1997; Koplas et al. 1997.) Single-channel current activity in cell-attached patches from DRG neurons were recorded at −60 and +60 mV, as shown in FIG. 3.

T1 sequence (O35433 whole entry): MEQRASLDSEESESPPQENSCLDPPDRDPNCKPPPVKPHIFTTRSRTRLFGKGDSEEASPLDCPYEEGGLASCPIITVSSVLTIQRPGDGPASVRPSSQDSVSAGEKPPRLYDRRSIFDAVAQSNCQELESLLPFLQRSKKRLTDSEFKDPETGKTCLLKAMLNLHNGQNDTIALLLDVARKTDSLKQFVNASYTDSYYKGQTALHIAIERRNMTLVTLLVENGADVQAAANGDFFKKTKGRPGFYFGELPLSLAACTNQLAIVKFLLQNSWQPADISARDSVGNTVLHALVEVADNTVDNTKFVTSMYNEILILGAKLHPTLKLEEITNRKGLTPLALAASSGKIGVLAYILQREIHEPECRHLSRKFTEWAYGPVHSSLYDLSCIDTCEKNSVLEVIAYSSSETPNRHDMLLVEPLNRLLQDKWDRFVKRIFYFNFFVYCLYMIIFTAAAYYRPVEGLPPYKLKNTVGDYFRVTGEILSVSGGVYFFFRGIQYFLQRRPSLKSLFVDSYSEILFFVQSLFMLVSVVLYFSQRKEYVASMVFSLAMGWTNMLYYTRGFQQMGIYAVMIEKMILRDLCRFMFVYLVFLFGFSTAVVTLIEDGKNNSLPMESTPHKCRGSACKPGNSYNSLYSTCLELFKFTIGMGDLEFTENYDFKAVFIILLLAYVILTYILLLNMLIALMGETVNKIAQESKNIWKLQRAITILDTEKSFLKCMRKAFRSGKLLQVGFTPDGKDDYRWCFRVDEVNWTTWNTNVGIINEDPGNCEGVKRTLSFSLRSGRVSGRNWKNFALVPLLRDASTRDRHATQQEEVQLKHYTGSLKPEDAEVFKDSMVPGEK

COc1cc(CNC(=O)CCCC/C=C/C(C)C)ccc1O [capsaicin]
mean open time (+60 mV): 3.8 ms | single-channel conductance (+60 mV): 95±0.1 pS | single-channel current amplitude (+60 mV): 5.67±0.06 pA | Closed time τ4 (Vm +60 mV): 70.84±47 | Open time τ4 (Vm +60 mV): 14.7±2.6 | Closed time τ4 (Vm +60 mV, listed as CAP): 70.84 ± 47 | Open time τ4 (Vm +60 mV, listed as CAP): 14.7 ± 2.6 | Closed time τ1 (Vm +60 mV): 0.06±0.02 | Closed time τ2 (Vm +60 mV): 0.67±0.39 | Closed time τ3 (Vm +60 mV): 1.66±0.39 | Open time τ1 (Vm +60 mV): 0.14 ± 0.04 ms | Open time τ2 (Vm +60 mV): 0.7 ± 0.13 ms | Open time τ3 (Vm +60 mV): 3.83 ± 0.62 ms | Closed time τ1 (Vm +60 mV, listed as CAP): 0.06 ± 0.02 | Closed time τ2 (Vm +60 mV, listed as CAP): 0.67 ± 0.39 | Closed time τ3 (Vm +60 mV, listed as CAP): 1.66 ± 0.39 | Open time τ1 (Vm +60 mV, listed as CAP): 0.14 ± 0.04 ms | Open time τ2 (Vm +60 mV, listed as CAP): 0.7 ± 0.13 ms | Open time τ3 (Vm +60 mV, listed as CAP): 3.83 ± 0.62 ms | Po (single-channel open probability) (Vm +60 mV): 0.53±0.04 | Po (single-channel open probability) (Vm +60 mV, listed as CAP): 0.53 ± 0.04 | Closed time τ4 (Vm −60 mV): 30.8±12.4 | Closed time τ4 (Vm −60 mV, listed as CAP): 30.8 ± 12.4 | Closed time τ1 (Vm −60 mV): 0.13±0.02 | Closed time τ2 (Vm −60 mV): 0.79±0.12 | Closed time τ3 (Vm −60 mV): 3.47±0.59 | Open time τ1 (Vm −60 mV): 0.11 ± 0.01 ms | Open time τ2 (Vm −60 mV): 0.76 ± 0.18 ms | Open time τ3 (Vm −60 mV): 2.61 ± 0.84 ms | Closed time τ1 (Vm −60 mV, listed as CAP): 0.13 ± 0.02 | Closed time τ2 (Vm −60 mV, listed as CAP): 0.79 ± 0.12 | Closed time τ3 (Vm −60 mV, listed as CAP): 3.47 ± 0.59 | Open time τ1 (Vm −60 mV, listed as CAP): 0.11 ± 0.01 ms | Open time τ2 (Vm −60 mV, listed as CAP): 0.76 ± 0.18 ms | Open time τ3 (Vm −60 mV, listed as CAP): 2.61 ± 0.84 ms | Po (single-channel open probability) (Vm −60 mV): 0.1±0.04 | Po (single-channel open probability) (Vm −60 mV, listed as CAP): 0.1 ± 0.04 | slope conductance, inward limb / negative potentials: 41 pS | conductance level at which currents predominantly dwelled (capsaicin-induced currents): ~95 pS | mean open time (−60 mV): 1.27 ms | single-channel conductance (−60 mV): 40±1.95 pS | single-channel current amplitude (−60 mV): 2.4±0.12 pA

C=C(C)[C@]12C[C@@H](C)[C@@]34O[C@](Cc5ccccc5)(O[C@@H]1[C@@H]3C=C(COC(=O)Cc1ccc(O)c(OC)c1)C[C@]1(O)C(=O)C(C)=C[C@@H]41)O2 [RTX, resiniferatoxin]
mean open time (+60 mV): 7.9 ms | single-channel conductance (+60 mV): 100±2.2 pS | single-channel current amplitude (+60 mV): 6.02±0.14 pA | change of Po with increasing concentration (RTX 0.1 to 20 nM): did not change | Closed time τ1 (Vm +60 mV): 0.1±0.008 | Closed time τ2 (Vm +60 mV): 0.46±0.02 | Closed time τ3 (Vm +60 mV): 8.7±3.9 | Open time τ1 (Vm +60 mV): 1.6 ± 1.2 ms | Open time τ2 (Vm +60 mV): 6.58 ± 0.56 ms | Open time τ3 (Vm +60 mV): 12 ± 1 ms | Po (single-channel open probability) (Vm +60 mV): 0.98±0.02 | Closed time τ1 (Vm −60 mV): 0.05±0.007 | Closed time τ2 (Vm −60 mV): 0.12±0.005 | Closed time τ3 (Vm −60 mV): 1.1±0.26 | Open time τ1 (Vm −60 mV): 0.46 ± 0.1 ms | Open time τ2 (Vm −60 mV): 5.57 ± 2.4 ms | Open time τ3 (Vm −60 mV): 10.2 ± 1.8 ms | Po (single-channel open probability) (Vm −60 mV): 0.94±0.02 | slope conductance, outward limb / positive potentials (between 0 and +100 mV): 126 pS | slope conductance, inward limb / negative potentials: ~30 pS | Po of RTX-induced currents (cell-attached as well as outside-out patches, negative and positive potentials): ~0.9 | reversal potential of single-channel currents (recorded −100 to +100 mV): −2.9 mV | concentration that could maximally activate the receptor (single-channel recording): 0.1 to 0.2 nM | mean open time (−60 mV): 7.5 ms | single-channel conductance (−60 mV): 38.3±3.5 pS | single-channel current amplitude (−60 mV): 2.3±0.21 pA
